How the values were obtained:
Type in all cases: cell-based
[1] = tested on: human retinal pigment epithelial cells ARPE-19; experiment: Cytotoxicity on human retinal pigment epithelial cells ARPE-19 (MTT); conditions: ARPE-19, 12.5˜100 μmol/L, 24 h
Protocol: ARPE-19 cells (purchased from Guangzhou Jinnuo Biotechnology Co., Ltd., China) were seeded into RPMI-1640 low-glucose cell culture medium containing 10% fetal bovine serum and 1% dual-antibiotics (penicillin-streptomycin) (culture medium containing 2 g/L D-glucose, 0.3 g/L L-glutamine and 2 g/L sodium bicarbonate), and the medium was replaced once every 3 days for future use.
Cells at exponential growth phase were used, and 100 μl of complete medium was added to each well to reach a concentration of 1×10^4 cells/mL. Then the cells were cultured in a humidified atmosphere at 37° C. and 5% CO2 for 24 h. After the cells fully adhered, luteolin-7-O-glucoside and luteolin-7-O-glucuronide with final concentrations of 12.5 μmol/L, 25 μmol/L, 50 μmol/L, and 100 μmol/L were added respectively, and cultured for 24 h.
The cell viability was determined by the 3-(4,5-dimethyl-2-thiazolyl)-2,5-diphenyl-2-H-tetrazolium […] (MTT) method: 20 μl of 5 mg/ml MTT was added to each well, and the cells were cultured in a CO2 incubator for 4 h, with all operations shielded from light. […] The absorbance of ARPE-19 cells was measured with a microplate reader at 490 nm, and the cell survival rate was calculated as follows: cell survival rate=(OD value of experimental group−OD value of blank group)/(OD of control group−OD of blank group)×100%.

[2] = tested on: human retinal pigment epithelial cells ARPE-19; experiment: Blue light-induced damage to A2E-pretreated ARPE-19 cells, cell survival (MTT); conditions: 12.5˜50 μmol/L
Protocol: ARPE-19 cells were seeded into RPMI-1640 low-glucose cell culture medium containing 10% fetal bovine serum and 1% dual-antibiotics (penicillin-streptomycin), and the medium was replaced once every 3 days for future use.
Cells at exponential growth phase were used, and cells at 500 μl/well were seeded to a 24-well cell culture plate at a concentration of 5×10^4 cells/mL, and cultured in a humidified atmosphere at 37° C. and 5% CO2. After the cells fully adhered, the medium was replaced with the DMEM culture medium containing 25 μmol/L N-retinylidene-N-retinyl ethanolamine (A2E) for 2 hours of culture. Then, the supernatant was discarded, and the cells were washed 3 times with PBS, added with the luteolin-7-O-glucoside and luteolin-7-O-glucuronide with final concentrations of 12.5 μmol/L, 25 μmol/L, and […] respectively for 6 h of continuous culture, and then placed in a blue light device (50W LED blue light board with a blue light intensity of 3230˜3540 Lux) for 4 h of irradiation. After the light irradiation, the cells were placed in a 37° C. and 5% CO2 incubator again and continued to incubate for 24 h. […] The OD values were measured with a multi-well microplate reader at 490 nm, and the cell survival rate was calculated as follows: cell survival rate=(OD value of experimental group−OD value of blank group)/(OD of control group−OD of blank group)×100%. […]

[3] = tested on: human retinal pigment epithelial cells ARPE-19; experiment: Intracellular ROS content by DHE staining in blue light-damaged ARPE-19 cells; conditions: A2E + blue light, vs model group
Protocol: A single layer of ARPE-19 cells were seeded and cultured in a 24-well plate with a cell concentration of 5×10^4 cells/well. After treatment as described in Example 2, the cells were washed twice with PBS and reactive oxygen species (ROS) fluorescent probe dihydroethidium (DHE) staining solution with a concentration of 20 μmol/L was added, and the cells were incubated at 37° C. for 20 min. Then, the cells were washed twice with PBS to fully remove the DHE probe that had not entered the cell, and then imaging was performed under an inverted microscope with an excitation wavelength of 540 nm and an emission wavelength of 590 nm.

[4] = tested on: human retinal pigment epithelial cells ARPE-19; experiment: Hoechst 33342 nuclear staining (apoptosis) in blue light-damaged ARPE-19 cells; conditions: A2E + blue light, vs model group
Protocol: The cells were seeded in a 24-well plate (5×10^4 cells/well), and after the treatment as previously described, the fix solution was added and incubated for 30 min. Then the cells were washed three times with PBS, added with live cell staining solution (Hoechst 33342) with a concentration of 20 μg/mL, and incubated for 15 min at room temperature shielded from light. After the cells were washed with PBS, imaging was performed under an inverted fluorescence microscope with an excitation wavelength of 365 nm and an emission wavelength of 460 nm.

Row | Structure (SMILES) | cytotoxicity on ARPE-19 (in words) [1] | concentration dependence of the cell survival rate (in words) [2] | intracellular fluorescence intensity (ROS content, DHE staining) [3] | cell status / nuclear condensation (Hoechst 33342, apoptosis) [4]
1 | O=c1cc(-c2ccc(O)c(O)c2)oc2cc(O[C@@H]3O[C@H](CO)[C@@H](O)[C@H](O)[C@H]3O)cc(O)c12 [luteolin-7-O-glucoside] | no cytotoxicity | concentration-dependent | decreased significantly as the dose increased | the cell status had obviously improved
2 | O=C(O)[C@H]1O[C@@H](Oc2cc(O)c3c(=O)cc(-c4ccc(O)c(O)c4)oc3c2)[C@H](O)[C@@H](O)[C@@H]1O [luteolin-7-O-glucuronide] | no cytotoxicity | concentration-dependent |  | 

From patent US12383573B2, “Use of luteolin-7-O-glucoside or luteolin-7-O-glucuronide in preparation of medicine for eye injuries” (BEIJING CHENGYI INVESTMENT CO., LTD., priority 2019, dated 2025)
